Reference: publication PMC3713598, “Renal Protective Role of Xiexin Decoction with Multiple Active Ingredients Involves Inhibition of Inflammation through Downregulation of the Nuclear Factor-κB Pathway in Diabetic Rats” (Evidence-based Complementary and Alternative Medicine : eCAM, 2013)
Read-outs that look alike come from different tables or passages of the source.

How the values were obtained:
diabetic nephropathy = details: cited from earlier work
[1] = Pharmacokinetics of XXD ingredients in diabetic rat plasma (LC-MS/MS); assay type: in vivo; details: for shape of plasma concentration-time curve / Tmax: after ig administration of XXD for 12 weeks; for Tmax / AUC(0-t) / Cmax: male, Sprague-Dawley, po; for Tmax: diabetic rat plasma, read-out: time of peak concentrations (converted); for AUC(0-t) / Cmax: rat
Procedure: Male Sprague-Dawley rats (90−100 g) were purchased from the Shanghai Slac Laboratory Animal Co. (Shanghai, China). The rats were housed in an air-conditioned room at 22–24°C under a 12-h dark/light cycle and were given food and water at libitum. All animal experiments were conducted in accordance with the institutional guidelines for the care and use of laboratory animals at Shanghai University of TCM. After 1-week adaptation, animals were divided into a normal control (NC) group fed a standard diet and a high-fat group received a high-fat diet. After 4 weeks, rats on the high-fat diet were treated with streptozotocin (40 mg/kg, intraperitoneal injection). […] In the clinical practice of TCM, XXD is usually prescribed at a daily dose of 46 g of herbal materials (amount to 12 g extract) for diabetic patient. When this human dose was converted into an animal dose (a person of 60 kg, and a conversion factor of 6.25 between human and rat), it was equivalent to the low dose (1.25 g/kg extract) used in this study. NC and DM were treated with vehicle (normal saline) in a matched volume. All the rats were administered the drugs via intragastric gavage (ig) once a day, for 12 weeks.
The rats treated with XXD for 12 weeks were fasted with free access to water for 12 h before the PK experiments. Blood samples were collected before dosing and at 0, 0.25, 0.5, 1, 2, 4, 6, 12, and 24 h following administration. A validated liquid chromatography-tandem mass spectrometry (LC-MS/MS) method was applied to simultaneously determine the concentration of 11 ingredients (coptisine, jatrorrhizine, berberine, palmatine, baicalin, baicalein, wogonoside, wogonin, rhein, emodin, and aloeemodin) in blood plasma. The plasma concentration-time data were analysed by noncompartmental methods with the WinNonLin software package (Pharsight Corporation, Mountain View, CA, USA) to determine PK parameters.

[2] = XXD 1.25 g/kg intragastric gavage for 12 weeks, diabetic rats, plasma, mean ± SD n = 8, read-out: AUC0–24 h
[3] = XXD 1.25 g/kg intragastric gavage for 12 weeks, diabetic rats, plasma, mean ± SD n = 8, read-out: C max
[4] = XXD 2.5 g/kg intragastric gavage for 12 weeks, diabetic rats, plasma, mean ± SD n = 8, read-out: AUC0–24 h
[5] = XXD 2.5 g/kg intragastric gavage for 12 weeks, diabetic rats, plasma, mean ± SD n = 8, read-out: C max

SMILES	anti-DN effects (diabetic nephropathy)	shape of plasma concentration-time curve ([1]; diabetic rats)	Tmax [1] [min]	AUC(0-t) [1, 2] [ng·h/mL]	Cmax [1, 3] [ng/mL]	AUC(0-t) [1, 4] [ng·h/mL]	Cmax [1, 5] [ng/mL]	also measured
O=C(O)[C@H]1O[C@@H](Oc2cc3oc(-c4ccccc4)cc(=O)c3c(O)c2O)[C@H](O)[C@@H](O)[C@@H]1O [Baicalin, baicalin]	exhibited anti-DN effects	double peaks	10	4700 ± 1730	1560 ± 570	16100 ± 9600	4310 ± 1710	renal TGF-β1 protein expression (diabetic nephropathy): downregulate
Cc1cc(O)c2c(c1)C(=O)c1cc(O)cc(O)c1C2=O [Emodin, emodin]	exhibited anti-DN effects							Tmax ([1]; in vivo): 30 min; AUC(0-t) ([1]; in vivo, XXD 1.25 g/kg intragastric gavage for 12 weeks, diabetic rats, plasma, mean ± SD n = 8, read-out: AUC0–24 h): 61 ± 8 ng·h/mL; Cmax ([1]; in vivo, XXD 1.25 g/kg intragastric gavage for 12 weeks, diabetic rats, plasma, mean ± SD n = 8, read-out: C max): 13 ± 7 ng/mL; AUC(0-t) ([1]; in vivo, XXD 2.5 g/kg intragastric gavage for 12 weeks, diabetic rats, plasma, mean ± SD n = 8, read-out: AUC0–24 h): 119 ± 25 ng·h/mL; Cmax ([1]; in vivo, XXD 2.5 g/kg intragastric gavage for 12 weeks, diabetic rats, plasma, mean ± SD n = 8, read-out: C max): 22 ± 9 ng/mL
COc1cc2c(cc1O)CC[n+]1cc3c(OC)c(OC)ccc3cc1-2 [Jatrorrhizine, jatrorrhizine]		double peaks		172 ± 57	14 ± 9	201 ± 152	21 ± 13	
COc1cc2c(cc1OC)-c1cc3ccc(OC)c(OC)c3c[n+]1CC2 [Palmatine, palmatine]								AUC(0-t) ([1]; in vivo, 1.25 g/kg): 113 ± 69 ng·h/mL; Cmax ([1]; in vivo, 1.25 g/kg): 17 ± 13 ng/mL; AUC(0-t) ([1]; in vivo, 2.5 g/kg): 312 ± 197 ng·h/mL; Cmax ([1]; in vivo, 2.5 g/kg): 29 ± 18 ng/mL
O=C(O)c1cc(O)c2c(c1)C(=O)c1cccc(O)c1C2=O [Rhein, rhein]	exhibited anti-DN effects		10	1100 ± 216	961 ± 430	2790 ± 937	1750 ± 514	renal TGF-β1 protein expression (diabetic nephropathy): downregulate
COc1c(O)cc(O)c2c(=O)cc(-c3ccccc3)oc12 [Wogonin, wogonin]			10	154 ± 71	47 ± 38	423 ± 307	149 ± 86	
COc1c(O[C@@H]2O[C@H](C(=O)O)[C@@H](O)[C@H](O)[C@H]2O)cc(O)c2c(=O)cc(-c3ccccc3)oc12 [Wogonoside, wogonoside]		double peaks	10	3460 ± 894	1140 ± 321	8880 ± 2990	2240 ± 475	
O=C1c2cccc(O)c2C(=O)c2c(O)cc(CO)cc21 [aloeemodin]								plasma concentration relative to LLOQ ([1]; at about 0.5–2 h after ig XXD, below the LLOQ at other times): slightly higher than the lower limit of quantification
